IC50 data for two compounds are collected here from publication PMC11857971, “^11C-Labeling of a Flavanone Extracted from a South American Native Species for Evaluation of Its Interaction with GSK-3β” (Molecules, 2025).

The target of this assay is T1, GSK-3β (Homo sapiens, UniProt P49841).
T1 construct: gene GSK3B
In words: Kinase-Glo luminescent kinase assay, recombinant human GSK-3β, dose-response. Type of assay: biochemical. A general note: In Kinase-Glo more light means more ATP remaining.

Each structure is given as a SMILES string.

What is called IC50 is the midpoint of a concentration-inhibition curve.

T1 sequence (P49841 whole entry): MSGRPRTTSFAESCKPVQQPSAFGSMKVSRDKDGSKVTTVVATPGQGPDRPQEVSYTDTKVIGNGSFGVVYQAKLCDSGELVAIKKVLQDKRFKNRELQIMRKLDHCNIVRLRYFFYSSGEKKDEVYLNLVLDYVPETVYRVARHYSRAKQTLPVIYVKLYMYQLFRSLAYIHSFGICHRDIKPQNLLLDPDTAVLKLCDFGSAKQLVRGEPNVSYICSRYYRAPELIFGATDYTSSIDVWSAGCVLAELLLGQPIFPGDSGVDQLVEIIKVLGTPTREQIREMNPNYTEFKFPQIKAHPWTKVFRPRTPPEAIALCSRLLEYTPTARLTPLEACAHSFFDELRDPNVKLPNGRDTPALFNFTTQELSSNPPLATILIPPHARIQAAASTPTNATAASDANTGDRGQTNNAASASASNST

Consider `COc1cc(O)c2c(c1CC=C(C)C)O[C@H](c1ccccc1)CC2=O` [FLA, (S)-5-hidroxy-7-methoxy-8-(3-methylbut-2-en-1-yl)-2-phenylcroman-4-one], for which the IC50 was found to be 16.1 ± 0.6 µM.
Turning to `CC(C)=CCc1c(O)cc(O)c2c1O[C@H](c1ccccc1)CC2=O` [glabranin, (S)-5,7-dihydroxy-8-(3-methylbut-2-en-1-yl)-2-phenylchroman-4-one], the IC50 was 44.8 ± 4 µM.
